We go through one compound from paper PMC9370166, “In Vitro and In Vivo Antibacterial Activity, Toxicity and Resistance Analysis of Pleuromutilin Derivative Z33 against Methicillin-Resistant Staphylococcus aureus” (Molecules, 2022).

Data set [1] deals with T1, CYP2E1 (Homo sapiens, UniProt P05181).
T1 construct: 40 µL of the human liver microsomal enzyme (final concentration is 0.5 g/L); tissue Research Institute for Liver Diseases Co., Ltd. (Shanghai, China); host or cells: human liver microsomes
Description: CYP450 inhibition assay, human liver microsomes, chlorzoxazone probe. The format is in vitro ADME. The note with it: for IC50: human liver microsomes. As for the experimental part: (§1) The inhibition effect of Z33 and tiamulin on the human liver microsomal enzyme was determined as described in the literature with some modifications. Experiments were performed in 96-well plates with a final incubation volume of 100 μL per well. 40 µL of the human liver microsomal enzyme (final concentration is 0.5 g/L), 20 µL of probe substrate (final concentration of testosterone and chlorzoxazone is 20 µmol/L), and 20 µL of test drug were mixed in each well. After preincubation at 37 °C for 5 min, the reactions were started by the addition of 20 μL of NADPH (final concentration is 1 mmol/L). Depending on the substrate, the chlorzoxazone and testosterone groups were incubated at 37 °C for 25 min and 10 min, respectively. The reaction was terminated by adding 100 µL of acetonitrile, and then the supernatant was centrifuged to analyse by LC-MS/MS.
Background: Microsomes from liver hold many membrane-bound enzymes, among them those of drug oxidation.

A short description of data set [2]: Cytotoxicity test (MTT assay). The format is cell-based. The note with it: mouse, RAW264.7 macrophages, RAW264.7, MTT, tested up to 20 μg/mL. The method, then: (§2) To assess the effects of tiamulin and Z33 on the viability of RAW264.7 macrophages, the MTT assay was performed according to previous reports. […] After discarding the MTT solution, DMSO (150 μL) was added to each well to dissolve all crystals. OD490nm was recorded using EnSight Multimode Plate Reader (PerkinElmer, […], USA).
On the technique in general: Tetrazolium dyes change colour on reduction, which living cells bring about.

The subject of data set [3] is RAW264.7 cells. Description: Cytotoxicity test (MTT assay). The format is cell-based. The following applies: concentrations less than 5 μg/mL, 24 h, MTT. As for the experimental part:
as §2

For data set [4], the system named is MRSA ATCC 43300. Description: Time-kill kinetics assay. The format is cell-based, Staphylococcus aureus. The note with it: 8 × MIC; over 24 h of exposure. The method, then:
The time–kill kinetics curve of Z33 was determined according to previous reports. MRSA ATCC 43300 strains were grown in Mueller–Hinton Broth (MHB) at the starting inoculum of 10^6 CFU/mL. […] MHB without antibiotics was used as a control. At various time points (0, 3, 6, 9, and 24 h), 100 µL of samples were diluted with 0.9% saline and plated on MHA medium. CFU were recorded after 24 h of incubation at 37 °C.

Data set [5] deals with T2, CYP3A4 (Homo sapiens, UniProt P08684).
T2 construct: 40 µL of the human liver microsomal enzyme (final concentration is 0.5 g/L); tissue Research Institute for Liver Diseases Co., Ltd. (Shanghai, China); host or cells: human liver microsomes
Description: CYP450 inhibition assay, human liver microsomes, testosterone probe. The format is in vitro ADME. As for the experimental part:
as §1

The test system of data set [6] is MRSA ATCC 43300. Description: Determination of MPC (mutant prevention concentration). The format is cell-based, Staphylococcus aureus. As for the experimental part:
(§3) The drug-resistant tendency suppression potential of Z33 and tiamulin was determined as described with minor modifications. In the test, for each S. aureus strain, 4 mL of overnight cultures were inoculated into 100 mL of fresh BHI broth and then incubated for 4.5 h at 37 °C with shaking (210 rpm). Cultures were centrifuged at 5000 r/min for 10 min. The supernatant was discarded and resuspended in the 4 mL of saline to achieve a bacterial density of ~3 × 10^10 CFU/mL. In total, 100 μL of each culture was spread onto MHA containing various concentrations of Z33 and tiamulin. […] Plates were incubated at 37 °C for a total of 72 h and recorded every 24 h for the appearance of colonies. MPC was defined as the lowest concentration with no growth of colonies on the agar plate. MPC was carried out in triplicate.

Data set [7] relates to S. aureus ATCC 29213. Described as above. The format is cell-based, Staphylococcus aureus. The method, then:
as §3

The test system of data set [8] is S. aureus clinical strain 144. Described as above. The format is cell-based, Staphylococcus aureus. The method, then: as §3
Data set [9] relates to S. aureus clinical strain AD3. Described as above. The format is cell-based, Staphylococcus aureus. The method, then: as §3
Data set [10] deals with MRSA ATCC 43300. Description: Post-antibiotic effect assay. The format is cell-based, Staphylococcus aureus. The method, then: The PAE was measured using the method described by Jin et al.. MRSA ATCC 43300 cells were collected in the logarithmic phase and resuspended in MHB. The bacterial suspension (10^6 CFU/mL) was inoculated in MHB containing Z33 (final concentration is 2 × or 4 × MIC) and incubated for 1 or 2 h at 37 °C with shaking (210 rpm). The group without the drug served as a control. After treatment with various concentrations of Z33, samples were subjected to one-thousand-fold dilution with MHB to remove the drug and incubated at 37 °C. In total, 100 µL of the samples was serially diluted in 0.9% saline and plated onto MHA at various time points (0, 1, 2, 4, 8 h). MHA plates were incubated at 37 °C for 18~24 h to calculate CFU. The growth kinetic curves of MRSA treated with different drug concentrations were established by plotting log10 CFU/mL of bacterial counts versus time. PAE was presented in hours and calculated according to the following equation: PAE = TA − TC, where TA and TC are the time required for MRSA to rise by 1 log10 CFU/mL after drug removal in the treated and untreated cultures, respectively.

In data set [11] the test system is MRSA ATCC 43300. Nature of the data set: Neutropenic mouse thigh infection model. The format is in vivo, mice. As for the experimental part: The neutropenic mouse thigh infection model was used to determine the in vivo antibacterial activity of Z33 [23]. Briefly, female mice were rendered neutropenic (neutrophil count ≤ 100/mm^3) via intraperitoneal injection of cyclophosphamide on day 4 (150 mg/kg) and day 1 (100 mg/kg) before infection. MRSA ATCC 43300 cells were collected in the logarithmic phase and resuspended in 0.9% saline. The thigh infection model was established by injection of 100 μL of MRSA suspension (10^7 CFU/mL) into the posterior thighs of mice. After 2 h post-infection, mice were intravenously injected with tiamulin and Z33 at a dose of 20 mg/kg, and the untreated groups were administrated with an equal amount of saline. Mice were euthanized after treatment of 22 h, thigh tissue was aseptically collected, weighed, homogenized, and serially diluted in saline, respectively. CFU counts were determined by the flat colony counting method.

Read-outs that look alike come from different tables or passages of the source.

T1 sequence (P05181 whole entry): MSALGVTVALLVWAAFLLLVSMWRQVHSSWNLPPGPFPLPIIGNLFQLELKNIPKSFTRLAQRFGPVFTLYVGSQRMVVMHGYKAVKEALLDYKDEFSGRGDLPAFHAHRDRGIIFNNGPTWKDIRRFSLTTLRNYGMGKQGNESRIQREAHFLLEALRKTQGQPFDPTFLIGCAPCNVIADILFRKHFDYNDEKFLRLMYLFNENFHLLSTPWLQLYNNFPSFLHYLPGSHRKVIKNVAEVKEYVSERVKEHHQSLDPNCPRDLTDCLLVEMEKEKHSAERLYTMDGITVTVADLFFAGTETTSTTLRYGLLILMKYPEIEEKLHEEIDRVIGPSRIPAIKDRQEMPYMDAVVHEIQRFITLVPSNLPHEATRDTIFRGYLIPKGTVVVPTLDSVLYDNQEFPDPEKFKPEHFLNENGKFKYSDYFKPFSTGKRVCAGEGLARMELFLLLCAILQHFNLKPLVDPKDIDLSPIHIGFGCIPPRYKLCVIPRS
T2 sequence (P08684 whole entry): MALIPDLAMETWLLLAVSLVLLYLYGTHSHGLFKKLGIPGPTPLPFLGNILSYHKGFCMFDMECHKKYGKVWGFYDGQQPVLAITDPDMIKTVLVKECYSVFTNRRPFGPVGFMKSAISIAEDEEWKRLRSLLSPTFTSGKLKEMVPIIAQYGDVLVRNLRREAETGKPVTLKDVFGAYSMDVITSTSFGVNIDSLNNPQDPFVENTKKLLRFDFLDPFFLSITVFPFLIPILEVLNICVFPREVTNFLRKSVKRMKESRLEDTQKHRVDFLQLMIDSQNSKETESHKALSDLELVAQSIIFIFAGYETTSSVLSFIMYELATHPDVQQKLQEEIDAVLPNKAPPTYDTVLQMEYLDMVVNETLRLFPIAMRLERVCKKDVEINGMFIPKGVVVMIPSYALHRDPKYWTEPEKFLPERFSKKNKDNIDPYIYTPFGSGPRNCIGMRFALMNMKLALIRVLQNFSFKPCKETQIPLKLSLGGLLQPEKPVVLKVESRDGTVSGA

One may read the IC50 as the midpoint of a concentration-inhibition curve. In the case of `C=C[C@]1(C)C[C@@H](OC(=O)CSc2ccccc2NC(=O)Cn2cc(CN3CCN(c4ccc([N+](=O)[O-])cc4)CC3)nn2)[C@]2(C)[C@H](C)CC[C@]3(CCC(=O)[C@H]32)[C@@H](C)[C@@H]1O` [Compound Z33, 22-(2-(2-(4-((4-(4-nitrophenyl)piperazin-1-yl)methyl)-1H-1,2,3-triazol-1-yl)acetamido)phenyl)thioacety-l-yl-22-deoxypleuromutilin], the “fold difference of CYP2E1 IC50 relative to tiamulin” value in data set [1] (Z33 vs tiamulin) is reported as “at least 50 fold”. The IC50 in data set [1] (Figure 6, read-out: IC50 CYP2E1 (value in plot key)) is 10.2 µM; in data set [1] (bound given in text, read-out: IC50 CYP2E1), above 10 µM; in [5], 1.57 µM. The IC50 at 24 h in [2] was at least 20 µg/mL. Besides, the “cytotoxicity on RAW264.7 cells” value in [3] is “No significant cytotoxicity”. In data set [4], the “concentration showing inhibition of bacterial growth (time-kill)” value is 1 µg/mL. In addition, the MPC in [6], in data set [7], in data set [8] and in data set [9] was 0.5 µg/mL each time. Also, the PAE was found to be 2.24 h in data set [10] (2 × MIC, exposure for 1 h); 2.18 h in data set [10] (2 × MIC, exposure for 2 h); 3.89 h in data set [10] (4 × MIC, exposure for 1 h); 3.93 h in [10] (4 × MIC, exposure for 2 h). Moreover, the “MRSA inoculum in the thigh muscle” value in data set [11] (20 mg/kg intravenous, after treatment for 24 h) is given as 7.065 ± 0.070 log10 CFU/g. In data set [11] (20 mg/kg intravenous, versus untreated group), the “reduction of bacterial load in the thigh muscle” value is “approximately 1.358 log10 CFU/g”. In addition, in data set [11] (20 mg/kg, p < 0.0001), the “reduction in CFUs compared with the control group” value came out at 1.358 log10.
